# Test results taken from ChEMBL document CHEMBL1131561, “Peptidomimetic aminomethylene ketone inhibitors of interleukin-1 beta-converting enzyme (ICE)” (Bioorg Med Chem Lett, 1998).
# Target: T1, Caspase-1 (Homo sapiens, UniProt P29466)
# T1 sequence (P29466 whole entry): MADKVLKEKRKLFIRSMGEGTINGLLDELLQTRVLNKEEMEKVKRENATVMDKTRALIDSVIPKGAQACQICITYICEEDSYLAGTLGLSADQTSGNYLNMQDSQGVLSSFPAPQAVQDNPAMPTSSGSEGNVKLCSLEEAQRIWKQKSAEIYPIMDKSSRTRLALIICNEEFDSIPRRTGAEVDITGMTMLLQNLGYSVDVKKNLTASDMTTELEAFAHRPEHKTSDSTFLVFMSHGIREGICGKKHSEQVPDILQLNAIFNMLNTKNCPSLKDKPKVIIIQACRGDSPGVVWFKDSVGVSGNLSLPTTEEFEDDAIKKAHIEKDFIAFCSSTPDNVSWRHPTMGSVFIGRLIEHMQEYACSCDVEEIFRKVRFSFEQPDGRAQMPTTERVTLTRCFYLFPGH
# Assay: Inhibition of human recombinant IL-1 beta converting enzyme
row,Structure (SMILES),Ki [µM]
1,CCC(C(=O)N[C@@H](CC(=O)O)C(=O)CN(C)CCCC(N)=O)n1cccc(NC(=O)c2ccc3ccccc3c2)c1=O (stereo not given in full),0.037
2,CCC(C(=O)N[C@@H](CC(=O)O)C(=O)CNCCCc1ccccc1)n1cccc(NC(=O)c2ccc3ccccc3c2)c1=O (stereo not given in full),0.00115
3,CCCC(=O)NCC(=O)C(CC(=O)O)NC(=O)C(CC)n1cccc(NC(=O)c2ccc3ccccc3c2)c1=O (stereo not given),0.081
4,CCOC(=O)C1CCN(CC(=O)C(CC(=O)O)NC(=O)C(CC)n2cccc(NC(=O)c3ccc4ccccc4c3)c2=O)CC1 (stereo not given),0.008
5,CCC(C(=O)NC(CC(=O)O)C(=O)Cn1ccccc1=O)n1cccc(NC(=O)c2ccc3ccccc3c2)c1=O (stereo not given),1.65
6,CCC(C(=O)NC(CC(=O)O)C(=O)CN1CCCC1)n1cccc(NC(=O)c2ccc3ccccc3c2)c1=O (stereo not given),0.0073
7,CCC(C(=O)N[C@@H](CC(=O)O)C(=O)CNCCc1ccccc1)n1cccc(NC(=O)c2ccc3ccccc3c2)c1=O (stereo not given in full),0.00037
8,CCC(C(=O)NC(CC(=O)O)C(=O)CN1CCCCC1)n1cccc(NC(=O)c2ccc3ccccc3c2)c1=O (stereo not given),0.004
9,CCCCCCN(C)CC(=O)[C@H](CC(=O)O)NC(=O)C(CC)n1cccc(NC(=O)c2ccc3ccccc3c2)c1=O (stereo not given in full),0.00179
10,CCC(C(=O)NC(CC(=O)O)C(=O)CN1CCN(C)CC1)n1cccc(NC(=O)c2ccc3ccccc3c2)c1=O (stereo not given),0.0625
11,CCC(C(=O)NC(CC(=O)O)C(=O)CNC(=O)c1ccccc1)n1cccc(NC(=O)c2ccc3ccccc3c2)c1=O (stereo not given),0.0575
12,CCC(C(=O)N[C@@H](CC(=O)O)C(=O)CN(C)[C@@H](Cc1ccccc1)C(N)=O)n1cccc(NC(=O)c2ccc3ccccc3c2)c1=O (stereo not given in full),0.255
13,CCC(C(=O)NC(CC(=O)O)C(=O)CN1CCSCC1)n1cccc(NC(=O)c2ccc3ccccc3c2)c1=O (stereo not given),0.0112
14,CCCCN(C)CC(=O)[C@H](CC(=O)O)NC(=O)C(CC)n1cccc(NC(=O)c2ccc3ccccc3c2)c1=O (stereo not given in full),0.0031
15,CCC(C(=O)NC(CC(=O)O)C(=O)CN1CCC(C(N)=O)CC1)n1cccc(NC(=O)c2ccc3ccccc3c2)c1=O (stereo not given),0.0116
16,CCC(C(=O)N[C@@H](CC(=O)O)C(=O)CN(C)CCc1ccccc1)n1cccc(NC(=O)c2ccc3ccccc3c2)c1=O (stereo not given in full),0.0048

# Other lines, results leading:
row,Ki [µM],Structure (SMILES)
1,0.078,CCC(C(=O)N[C@@H](CC(=O)O)C(=O)CN[C@@H](Cc1ccccc1)C(N)=O)n1cccc(NC(=O)c2ccc3ccccc3c2)c1=O (stereo not given in full)
2,0.00085,CCCCCCNCC(=O)[C@H](CC(=O)O)NC(=O)C(CC)n1cccc(NC(=O)c2ccc3ccccc3c2)c1=O (stereo not given in full)
3,0.00239,CCCCCCN(CCCCCC)CC(=O)[C@H](CC(=O)O)NC(=O)C(CC)n1cccc(NC(=O)c2ccc3ccccc3c2)c1=O (stereo not given in full)
4,0.0343,CCCCCC(=O)NCC(=O)C(CC(=O)O)NC(=O)C(CC)n1cccc(NC(=O)c2ccc3ccccc3c2)c1=O (stereo not given)
5,0.117,CCC(C(=O)NC(CC(=O)O)C(=O)CNC(C)=O)n1cccc(NC(=O)c2ccc3ccccc3c2)c1=O (stereo not given)
6,0.0228,CCC(C(=O)N[C@@H](CC(=O)O)C(=O)CN(C)C)n1cccc(NC(=O)c2ccc3ccccc3c2)c1=O (stereo not given in full)
7,0.00305,CCC(C(=O)N[C@@H](CC(=O)O)C(=O)CNCc1ccccc1)n1cccc(NC(=O)c2ccc3ccccc3c2)c1=O (stereo not given in full)
8,0.00076,CCCCNCC(=O)[C@H](CC(=O)O)NC(=O)C(CC)n1cccc(NC(=O)c2ccc3ccccc3c2)c1=O (stereo not given in full)
9,0.045,CCC(C(=O)NC(CC(=O)O)C(=O)CN1CCOCC1)n1cccc(NC(=O)c2ccc3ccccc3c2)c1=O (stereo not given)
10,0.0023,CCCCN(CC)CC(=O)[C@H](CC(=O)O)NC(=O)C(CC)n1cccc(NC(=O)c2ccc3ccccc3c2)c1=O (stereo not given in full)
11,0.41,CCC(C(=O)NC(CC(=O)O)C(=O)CN1CCNCC1)n1cccc(NC(=O)c2ccc3ccccc3c2)c1=O (stereo not given)
12,0.058,CCC(C(=O)N[C@@H](CC(=O)O)C(=O)CN(C)Cc1ccccc1)n1cccc(NC(=O)c2ccc3ccccc3c2)c1=O (stereo not given in full)
13,0.025,CCC(C(=O)N[C@@H](CC(=O)O)C(=O)CN[C@H](Cc1ccccc1)C(N)=O)n1cccc(NC(=O)c2ccc3ccccc3c2)c1=O (stereo not given in full)
14,0.395,CCC(C(=O)NC(CC(=O)O)C(=O)Cn1ccc(=O)cc1)n1cccc(NC(=O)c2ccc3ccccc3c2)c1=O (stereo not given)
